Test results reported in patent publication US5922730A, “Alkylated rapamycin derivatives” (American Home Products Corporation, priority 1998, dated 1999).
Several values for one entry are separate records, joined by “and”; a condition that tells them apart may be missing. Equal values may be shown once.

What was measured:
[1] = test system: pinch skin graft from male DBA/2 donors transplanted to male BALB/c recipients; assay: pinch skin graft survival; assay type: in vivo; conditions: intraperitoneal
Description: (§1) Immunosuppressive activity was evaluated in an in vitro standard pharmacological test procedure to measure lymphocyte proliferation (LAF), in an in vivo procedure to evaluate the survival time of a pinch skin graft, and in an in vivo procedure to determine inhibition of T-cell mediated inflammatory response (adjuvant arthritis).
The in vivo test procedure is designed to determine the survival time of pinch skin graft from male DBA/2 donors transplanted to male BALB/c recipients. The method is adapted from Brllingham R. E. and Medawar P. B., J. Exp. Biol. 28:385-402, (1951). Briefly, a pinch skin graft from the donor is grafted on the dorsum of the recipient as a homograft, and an autograft is used as control in the same region. […] Untreated recipients serve as rejection control. The graft is monitored daily and observations are recorded until the graft becomes dry and forms a blackened scab. This is considered as the rjection day. The mean graft survival time (MST -number of days±S.D.) of the drug treatment group is compared with the control group. Rapamycin treatment provides a mean graft survival (MST) of is 12.0±1.7 days.

[2] = test system: thymocyte proliferation (cells from the thymus, PHA and IL-1); assay: comitogen-induced thymocyte proliferation procedure (LAF); assay type: cell-based, BALB/c mice
Description: Briefly, cells from the thymus of normal BAUI/c mioe are cultured for 72 hours with PHA and IL-1 and pulsed with tritiated thymidine during the last six hours. […] Cells are harvested and incorporated; radioactivity is determined. Inhibition of lymphoproliferation is assessed in percent change in counts per minute from nondrug treated controls.

[3] = test system: breast (T47D) cancer cell line; assay: inhibition of growth of human tumor cells in vitro (Sulforhodaine B); assay type: cell-based; conditions: 48 hours exposure
Description: (§2) Human tumor cell lines were plated in 96-well plates (250 μL well, 1-6×10^4 cells/mL) in RPMI 1640 medium, containing 5% FBS (Petal Bovine Serum). Twenty-four hours after plating, drugs were added at five log concentrations (0.01-100 μg/mL). After 48 hours exposure to drugs, cells were fixed with trichloroacteic acid, and stained with Sulforhodaine B. After washing with trichloroacetic acid, bound dye was solubilized in 10 mM Tris base and Optical Density was determined using a plate reader. Under conditions of the assay, the optical density is proportional to the number of cells in the well. IC50 s (concentrations causing 50% inhibition of cell growth) were determined from the growth inhibition plots. The assay is described in details by Philip Skehan et al., J. National Cancer Institute 82, 1107-1112, 1990.

[4] = test system: colon (MIP 101) cancer cell line; assay: as above; assay type: cell-based; conditions: MIP 101, 48 hours exposure
Description: as §2

[5] = test system: ovarian (A 2780S) cancer cell line; assay: as above; assay type: cell-based; conditions: 48 hours exposure
Description: as §2

[6] = test system: Freund's Complete Adjuvant (FCA) induced arthritis; assay: adjuvant arthritis standard pharmacological test procedure; assay type: in vivo, rats (male inbred Wistar Lewis)
Description: as §1
The in vivo adjuvant arthritis standard pharmacological test procedure measures the abilty of test compounds to prevent immune mediated inflammation and inhibit or treat rheumatoid arthritis. The following briefly describes the test procedure used. A group of rats (male inbred Wistar Lewis rats) are pre-treated with the compound to be tested (1 h prior to antigen) and then injected with Freund's Complete Adjuvant (FCA) in the right hind paw to induce arthritis. The rats are then orally dosed on a Monday, Wednesday, Friday schedule from day 0-14 for a total of 7 doses. Both hind paws are measured on days 16, 23 and 30. The difference in paw volume (mL) from day 16 to day 0 is determined and a percent change from control is obtained. The left hind paw (uninjected paw) inflammation is caused by T-cell mediated inflammation and is recorded as percent change from control. The right hind paw inflammation, on the other hand, is caused by non-specific inflammation. Compounds were tested at a dose of 2 mg/kg.

[7] = test system: experimental allergic encephalomyelitis model; conditions: model for multiple sclerosis; cited from earlier work
Candida albicans = conditions: particularly against Candida albicans, in vitro and in vivo; cited from earlier work
[8] = test system: formation of IgE-like antibodies; conditions: in vivo; cited from earlier work

Compound | Skin Graft MST ± S.D. (mean graft survival time) [1] | IC50 ([2]; LAF, PHA and IL-1, 72 hours, read-out: IC50 analog) [nM] | R/A (ratio of the ID50s of rapamycin to the analog) ([2]; ratio less than 1.0 means the analog is less potent than rapamycin) | inhibition of cancer cell line growth [3] | inhibition of cancer cell line growth [4] | inhibition of cancer cell line growth [5] | Adjuvant Arthritis % Change (uninjected paw at day 16 versus control) ([6]; 2 mg/kg, oral, more negative = more potent) [%] | effect in experimental allergic encephalomyelitis model [7] | antifungal activity (Candida albicans) | inhibition of formation of IgE-like antibodies [8] | immune-induced inflammation less than control rats ([6]; rapamycin treated rats versus control rats)
29-O-Benzylrapamycin [Example 1] | 7.2 days | 4.2 | 0.12 | – | – | – | – | – | – | – | –
COCCOCCOCCO[C@@H]1CC[C@@H](C[C@@H](C)[C@@H]2CC(=O)[C@H](C)/C=C(\C)[C@@H](O)[C@@H](OC)C(=O)[C@H](C)C[C@H](C)/C=C/C=C/C=C(\C)[C@@H](OC)C[C@@H]3CC[C@@H](C)[C@@](O)(O3)C(=O)C(=O)N3CCCC[C@H]3C(=O)O2)C[C@H]1OC [Example 3, 42-O-(2-[2-(2-methoxyethoxy)-ethoxy]-ethyl)-rapamycin] | 9.8 days and 9.7 days | – | – | submicromolar concentrations | submicromolar concentrations | submicromolar concentrations | -88 | – | – | – | –
CO[C@H]1C[C@@H]2CC[C@@H](C)[C@@](O)(O2)C(=O)C(=O)N2CCCC[C@H]2C(=O)O[C@H]([C@H](C)C[C@@H]2CC[C@@H](O)[C@H](OC)C2)CC(=O)[C@H](C)/C=C(\C)[C@@H](O)[C@@H](OC)C(=O)[C@H](C)C[C@H](C)/C=C/C=C/C=C/1C [rapamycin] | 12.0 ± 1.7 days | – | – | – | – | – | – | effective | antifungal activity | effectively inhibited | 70-90%
